The values that follow come from patent US5486531A, “Hydroxymethylfurazancarboxylic acid derivatives” (Cassella Aktiengesellschaft, priority 1993, dated 1996).

Molecules are shown by their SMILES. Counter-ions that a name gives are not always drawn. Some results are limits rather than exact numbers.

The first test deals with spiral strips of the arteria pulmonalis of the guinea pig. The experiment in a line: relaxing effect on spiral strips of guinea pig arteria pulmonalis, contraction elicited by CaCl2 after depolarization with potassium (modified Godfraind and Kaba / Schuman). The test is classed as cell-based. Conditions: Cavia porcellus, read-out: IC50 (concentration of the test substance which inhibits the contraction by 50%). Here is the method:
For this, spiral strips of the arteria pulmonalis of the guinea pig are depolarized,following equilibration in calcium-free Tyrode solution, with 40 mmol/l potassium. Addition of 0.5 mmol/l CaCl2 then elicits a contraction. The relaxing effect of the test substance is determined by adding it cummulatively.
`O=[N+]([O-])O[C@@H]1CO[C@H]2[C@@H]1OC[C@@H]2O` [Isosorbide 5-mononitrate, isosorbide 5-mononitrate, reference compound]: the IC50 is greater than 100 µM.

The same test, now with this note: Cavia porcellus; depolarized with 40 mmol/l potassium, contraction by 0.5 mmol/l CaCl2; cumulative addition; average value from 4 to 6 vessel strips; read-out: IC50 (concentration of the test substance which inhibits the contraction by 50%).
For `CC(C)NC(=O)c1c(CO)no[n+]1[O-]` [Compound 1 I, 4-Hydroxymethyl-N-isopropyl-2-oxyfurazan-3-carboxamide], the IC50 amounted to 8 µM.

With `NC(=O)c1c(CO)no[n+]1[O-]` [Compound 3 I, 4-Hydroxymethyl-2-oxyfurazan-3-carboxamide], the IC50 came to 12 µM. Still for that read-out and setting: the result for `CNC(=O)c1c(CO)no[n+]1[O-]` [Example 4 I, 4-Hydroxymethyl-N-methyl-2-oxyfurazan-3-carboxamide] reads 7.3 µM; that for `O=C(NCc1cccnc1)c1c(CO)no[n+]1[O-]` [Example 8, 4-Hydroxymethyl-N-(3-pyridylmethyl)-2-oxyfurazan-3-carboxamide hydrochloride], 8 µM.

Regarding `COCCNC(=O)c1c(CO)no[n+]1[O-]` [Example 18, 4-Hydroxymethyl-N-(2-methoxyethyl)-2-oxyfurazan-3-carboxamide], the IC50 was 8 µM. Turning to `C[C@H](NC(=O)c1c(CO)no[n+]1[O-])c1ccccc1` [Example 23, 4-Hydroxymethyl-N-((S)-1-phenylethyl)-2-oxyfurazan-3-carboxamide], the IC50 worked out at 15 µM. On to `C[C@@H](NC(=O)c1c(CO)no[n+]1[O-])c1ccccc1` [Example 24, 4-Hydroxymethyl-N-((R)-1-phenylethyl)-2-oxyfurazan-3-carboxamide], for which the IC50 amounted to 2 µM.

Turning to `NS(=O)(=O)c1ccc(CCNC(=O)c2c(CO)no[n+]2[O-])cc1` [Example 26, 4-Hydroxymethyl-N-[2-(4-sulphamoylphenyl)-ethyl]-2-oxyfurazan-3-carboxamid], the IC50 turned out to be 11 µM. Consider `CCOC(=O)[N-]c1cn(N2CCOCC2)n[o+]1` [Molsidomine, molsidomine, reference compound], for which the IC50 amounted to 300 µM.
